# Assay results from patent publication US20090069320A1, “Substituted 4-Amino-Quinazoline Compounds with Metabotropic Glutamate Receptor Regulating Activity and Uses Thereof” (Gruenenthal GmbH, priority 2006, published 2009).
# Biological target: T1, mGluR5 receptor (Sus scrofa, UniProt I3LUI7)
# T1 construct: 450 μg of protein from brain homogenate with 5 nM ^3[H]-MPEP; from tissue; host or cells: pig brain halves without medulla, cerebellum and pons
# Experiment: [3H]-MPEP mGluR5 receptor binding assay (pig brain homogenate)
# Conditions: 10 μM compound, 5 nM [3H]-MPEP, read-out: % Inhibition of mGluR5 Receptor (pig) [^3H]-MPEP Bond at 10 μM
# In short: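 Radioligand displacement of 5 nM [3H]-MPEP from pig brain homogenate (450 μg protein; medulla, cerebellum and pons removed) in 20 mM Hepes pH 8.0. Compounds were tested at 10 μM, incubated 60 min at room temperature, then filtered and counted by scintillation. Non-specific binding was defined with 10 μM MPEP.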
# T1 sequence (I3LUI7 19-1212): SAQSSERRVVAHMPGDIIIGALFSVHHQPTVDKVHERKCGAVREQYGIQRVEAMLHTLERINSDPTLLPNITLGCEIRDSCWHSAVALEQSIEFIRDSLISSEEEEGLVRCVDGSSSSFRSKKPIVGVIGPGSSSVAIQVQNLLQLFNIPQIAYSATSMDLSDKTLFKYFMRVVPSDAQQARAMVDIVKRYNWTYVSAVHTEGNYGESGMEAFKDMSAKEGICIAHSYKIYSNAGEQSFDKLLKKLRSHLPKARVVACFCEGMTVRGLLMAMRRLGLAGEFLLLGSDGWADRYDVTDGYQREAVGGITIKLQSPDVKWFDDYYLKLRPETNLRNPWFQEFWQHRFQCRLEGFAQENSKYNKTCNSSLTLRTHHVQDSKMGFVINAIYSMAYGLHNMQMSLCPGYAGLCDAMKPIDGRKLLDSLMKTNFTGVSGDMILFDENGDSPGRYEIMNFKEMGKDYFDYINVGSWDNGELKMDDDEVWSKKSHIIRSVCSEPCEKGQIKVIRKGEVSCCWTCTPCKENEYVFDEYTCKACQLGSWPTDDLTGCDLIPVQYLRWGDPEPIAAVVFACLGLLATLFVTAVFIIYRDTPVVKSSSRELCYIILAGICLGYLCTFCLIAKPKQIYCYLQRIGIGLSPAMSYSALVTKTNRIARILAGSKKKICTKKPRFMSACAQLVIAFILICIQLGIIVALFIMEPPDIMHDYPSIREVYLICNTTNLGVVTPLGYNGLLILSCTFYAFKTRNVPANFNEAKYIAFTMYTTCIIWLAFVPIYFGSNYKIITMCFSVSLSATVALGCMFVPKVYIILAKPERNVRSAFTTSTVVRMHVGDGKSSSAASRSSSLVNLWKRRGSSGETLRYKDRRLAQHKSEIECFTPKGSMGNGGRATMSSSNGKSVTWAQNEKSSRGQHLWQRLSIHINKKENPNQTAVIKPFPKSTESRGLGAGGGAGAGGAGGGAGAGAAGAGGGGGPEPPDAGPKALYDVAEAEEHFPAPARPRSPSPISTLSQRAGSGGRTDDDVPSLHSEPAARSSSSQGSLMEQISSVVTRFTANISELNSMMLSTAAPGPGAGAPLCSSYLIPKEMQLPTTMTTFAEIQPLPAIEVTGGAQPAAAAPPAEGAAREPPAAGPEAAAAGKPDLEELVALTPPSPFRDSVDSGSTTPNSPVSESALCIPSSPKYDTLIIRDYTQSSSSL
row,SMILES,inhibition at 10 µM
1,"O=C(c1cccc(C(F)(F)F)c1)N(Cc1cc(-c2ccc3ncnc(NC4CC4)c3c2)ccc1F)C1CC1 [Example 405, N-cyclopropyl-N-(5-(4-(cyclopropylamino)quinazolin-6-yl)-2-fluorobenzyl)-3-(trifluoromethyl)benzamide]",77%
2,"O=C(Cc1ccccc1)N(Cc1cc(-c2ccc3ncnc(NC4CC4)c3c2)ccc1F)C1CC1 [Example 406, N-cyclopropyl-N-(5-(4-(cyclopropylamino)quinazolin-6-yl)-2-fluorobenzyl)-2-phenylacetamide]",95%
3,"O=S(=O)(c1cccs1)N(Cc1cc(-c2ccc3ncnc(NC4CC4)c3c2)ccc1F)C1CC1 [Example 407, N-cyclopropyl-N-(5-(4-(cyclopropylamino)quinazolin-6-yl)-2-fluorobenzyl)thiophene-2-sulfonamide]",92%
4,"CCCCC(=O)N(Cc1cccc(-c2ccc3ncnc(NCCc4ccccc4)c3c2)c1)C1CC1 [Example 409, N-cyclopropyl-N-(3-(4-(phenethylamino)quinazolin-6-yl)benzyl)pentanamide]",32%
5,"Cc1cccc(CNc2ncnc3ccc(-c4cccc(CN(C(=O)c5cccnc5)C5CC5)c4)cc23)c1 [Example 411, N-cyclopropyl-N-(3-(4-(3-methylbenzylamino)quinazolin-6-yl)benzyl)nicotinamide]",34%
6,"O=C(c1ccccc1C(F)(F)F)N(Cc1cc(-c2ccc3ncnc(NC4CC4)c3c2)ccc1F)C1CC1 [Example 413, N-cyclopropyl-N-(5-(4-(cyclopropylamino)quinazolin-6-yl)-2-fluorobenzyl)-2-(trifluoromethyl)benzamide]",89%
7,"O=C(CCc1ccccc1)N(Cc1cc(-c2ccc3ncnc(NC4CC4)c3c2)ccc1F)C1CC1 [Example 414, N-cyclopropyl-N-(5-(4-(cyclopropylamino)quinazolin-6-yl)-2-fluorobenzyl)-3-phenylpropanamide]",93%
8,"O=S(=O)(c1cccc2cccnc12)N(Cc1cc(-c2ccc3ncnc(NC4CC4)c3c2)ccc1F)C1CC1 [Example 415, N-cyclopropyl-N-(5-(4-(cyclopropylamino)quinazolin-6-yl)-2-fluorobenzyl)quinoline-8-sulfonamide]",53%
9,"CN(C)CC(=O)N(Cc1cccc(-c2ccc3ncnc(NCCc4ccccc4)c3c2)c1)C1CC1 [Example 417, N-cyclopropyl-2-(dimethylamino)-N-(3-(4-(phenethylamino)quinazolin-6-yl)benzyl)acetamide]",60%
10,"CC(=O)N(Cc1cccc(-c2ccc3ncnc(NCc4cccc(C)c4)c3c2)c1)C1CC1 [Example 419, N-cyclopropyl-N-(3-(4-(3-methylbenzylamino)quinazolin-6-yl)benzyl)acetamide]",76%
11,"CN(c1ncnc2ccc(-c3ccc(F)c(CN(C(=O)c4ccco4)C4CC4)c3)cc12)C1CC1 [Example 420, N-cyclopropyl-N-(5-(4-(cyclopropyl(methyl)amino)quinazolin-6-yl)-2-fluorobenzyl)furan-2-carboxamide]",94%
12,"O=C(c1cc(Cl)cc(Cl)c1)N(Cc1cc(-c2ccc3ncnc(NC4CC4)c3c2)ccc1F)C1CC1 [Example 421, 3,5-dichloro-N-cyclopropyl-N-(5-(4-(cyclopropylamino)quinazolin-6-yl)-2-fluorobenzyl)benzamide]",81%
13,"CN(c1ncnc2ccc(-c3ccc(F)c(CN(C(=O)c4cccs4)C4CC4)c3)cc12)C1CC1 [Example 427, N-cyclopropyl-N-(5-(4-(cyclopropyl(methyl)amino)quinazolin-6-yl)-2-fluorobenzyl)thiophene-2-carboxamide]",95%
14,"O=C(c1ccccn1)N(Cc1cc(-c2ccc3ncnc(NC4CC4)c3c2)ccc1F)C1CC1 [Example 428, N-cyclopropyl-N-(5-(4-(cyclopropylamino)quinazolin-6-yl)-2-fluorobenzyl)picolinamide]",96%
